Assay results as given in ChEMBL document CHEMBL5154675, “Design, Synthesis, and Biological Evaluation of 1-(Indolizin-3-yl)ethan-1-ones as CBP Bromodomain Inhibitors for the Treatment of Prostate Cancer” (J Med Chem, 2022).

Legend:
[1] = Hepatic extraction ratio in human liver microsomes at 1 uM incubated for 45 mins in presence of NADPH by LC-MS/MS analysis; assay type: ADME, Microsome; settings: read-out: ERH
[2] = Hepatic clearance in human liver microsomes at 1 uM incubated for 45 mins in presence of NADPH by LC-MS/MS analysis; assay type: ADME, Microsome; settings: read-out: CLH
[3] = Half life in rat liver microsomes at 1 uM incubated for 45 mins in presence of NADPH by LC-MS/MS analysis; assay type: ADME, Microsome
[4] = Intrinsic clearance in human liver microsomes at 1 uM incubated for 45 mins in presence of NADPH by LC-MS/MS analysis; assay type: ADME, Microsome; settings: read-out: CLH
[5] = Intrinsic clearance in rat liver microsomes at 1 uM incubated for 45 mins in presence of NADPH by LC-MS/MS analysis; assay type: ADME, Microsome; settings: read-out: CLH
in vitro = settings: rat, liver microsomes
Description: Hepatic extraction ratio in rat liver microsomes at 1 uM incubated for 45 mins in presence of NADPH by LC-MS/MS analysis

[6] = Half life in human liver microsomes at 1 uM incubated for 45 mins in presence of NADPH by LC-MS/MS analysis; assay type: ADME, Microsome
[7] = Metabolic stability in human liver microsomes assessed as parent compound remaining at 1 uM incubated for 45 mins in presence of NADPH by LC-MS/MS analysis; assay type: ADME, Microsome; settings: read-out: Stability
[8] = Hepatic clearance in rat liver microsomes at 1 uM incubated for 45 mins in presence of NADPH by LC-MS/MS analysis; assay type: ADME, Microsome
[9] = Metabolic stability in rat liver microsomes assessed as parent compound remaining at 1 uM incubated for 45 mins in presence of NADPH by LC-MS/MS analysis; assay type: ADME, Microsome; settings: read-out: Stability
CREB-binding protein [10] = biological target: T1, CREB-binding protein (Homo sapiens, UniProt Q92793); assay: Inhibition of His6-tagged human CBP bromodomain (1081 to 1197 residues) expressed in Escherichia coli BL21 (DE3) incubated for 30 mins by HTRF assay
Target sequence in this assay (Q92793 whole entry, the tested form may be a part): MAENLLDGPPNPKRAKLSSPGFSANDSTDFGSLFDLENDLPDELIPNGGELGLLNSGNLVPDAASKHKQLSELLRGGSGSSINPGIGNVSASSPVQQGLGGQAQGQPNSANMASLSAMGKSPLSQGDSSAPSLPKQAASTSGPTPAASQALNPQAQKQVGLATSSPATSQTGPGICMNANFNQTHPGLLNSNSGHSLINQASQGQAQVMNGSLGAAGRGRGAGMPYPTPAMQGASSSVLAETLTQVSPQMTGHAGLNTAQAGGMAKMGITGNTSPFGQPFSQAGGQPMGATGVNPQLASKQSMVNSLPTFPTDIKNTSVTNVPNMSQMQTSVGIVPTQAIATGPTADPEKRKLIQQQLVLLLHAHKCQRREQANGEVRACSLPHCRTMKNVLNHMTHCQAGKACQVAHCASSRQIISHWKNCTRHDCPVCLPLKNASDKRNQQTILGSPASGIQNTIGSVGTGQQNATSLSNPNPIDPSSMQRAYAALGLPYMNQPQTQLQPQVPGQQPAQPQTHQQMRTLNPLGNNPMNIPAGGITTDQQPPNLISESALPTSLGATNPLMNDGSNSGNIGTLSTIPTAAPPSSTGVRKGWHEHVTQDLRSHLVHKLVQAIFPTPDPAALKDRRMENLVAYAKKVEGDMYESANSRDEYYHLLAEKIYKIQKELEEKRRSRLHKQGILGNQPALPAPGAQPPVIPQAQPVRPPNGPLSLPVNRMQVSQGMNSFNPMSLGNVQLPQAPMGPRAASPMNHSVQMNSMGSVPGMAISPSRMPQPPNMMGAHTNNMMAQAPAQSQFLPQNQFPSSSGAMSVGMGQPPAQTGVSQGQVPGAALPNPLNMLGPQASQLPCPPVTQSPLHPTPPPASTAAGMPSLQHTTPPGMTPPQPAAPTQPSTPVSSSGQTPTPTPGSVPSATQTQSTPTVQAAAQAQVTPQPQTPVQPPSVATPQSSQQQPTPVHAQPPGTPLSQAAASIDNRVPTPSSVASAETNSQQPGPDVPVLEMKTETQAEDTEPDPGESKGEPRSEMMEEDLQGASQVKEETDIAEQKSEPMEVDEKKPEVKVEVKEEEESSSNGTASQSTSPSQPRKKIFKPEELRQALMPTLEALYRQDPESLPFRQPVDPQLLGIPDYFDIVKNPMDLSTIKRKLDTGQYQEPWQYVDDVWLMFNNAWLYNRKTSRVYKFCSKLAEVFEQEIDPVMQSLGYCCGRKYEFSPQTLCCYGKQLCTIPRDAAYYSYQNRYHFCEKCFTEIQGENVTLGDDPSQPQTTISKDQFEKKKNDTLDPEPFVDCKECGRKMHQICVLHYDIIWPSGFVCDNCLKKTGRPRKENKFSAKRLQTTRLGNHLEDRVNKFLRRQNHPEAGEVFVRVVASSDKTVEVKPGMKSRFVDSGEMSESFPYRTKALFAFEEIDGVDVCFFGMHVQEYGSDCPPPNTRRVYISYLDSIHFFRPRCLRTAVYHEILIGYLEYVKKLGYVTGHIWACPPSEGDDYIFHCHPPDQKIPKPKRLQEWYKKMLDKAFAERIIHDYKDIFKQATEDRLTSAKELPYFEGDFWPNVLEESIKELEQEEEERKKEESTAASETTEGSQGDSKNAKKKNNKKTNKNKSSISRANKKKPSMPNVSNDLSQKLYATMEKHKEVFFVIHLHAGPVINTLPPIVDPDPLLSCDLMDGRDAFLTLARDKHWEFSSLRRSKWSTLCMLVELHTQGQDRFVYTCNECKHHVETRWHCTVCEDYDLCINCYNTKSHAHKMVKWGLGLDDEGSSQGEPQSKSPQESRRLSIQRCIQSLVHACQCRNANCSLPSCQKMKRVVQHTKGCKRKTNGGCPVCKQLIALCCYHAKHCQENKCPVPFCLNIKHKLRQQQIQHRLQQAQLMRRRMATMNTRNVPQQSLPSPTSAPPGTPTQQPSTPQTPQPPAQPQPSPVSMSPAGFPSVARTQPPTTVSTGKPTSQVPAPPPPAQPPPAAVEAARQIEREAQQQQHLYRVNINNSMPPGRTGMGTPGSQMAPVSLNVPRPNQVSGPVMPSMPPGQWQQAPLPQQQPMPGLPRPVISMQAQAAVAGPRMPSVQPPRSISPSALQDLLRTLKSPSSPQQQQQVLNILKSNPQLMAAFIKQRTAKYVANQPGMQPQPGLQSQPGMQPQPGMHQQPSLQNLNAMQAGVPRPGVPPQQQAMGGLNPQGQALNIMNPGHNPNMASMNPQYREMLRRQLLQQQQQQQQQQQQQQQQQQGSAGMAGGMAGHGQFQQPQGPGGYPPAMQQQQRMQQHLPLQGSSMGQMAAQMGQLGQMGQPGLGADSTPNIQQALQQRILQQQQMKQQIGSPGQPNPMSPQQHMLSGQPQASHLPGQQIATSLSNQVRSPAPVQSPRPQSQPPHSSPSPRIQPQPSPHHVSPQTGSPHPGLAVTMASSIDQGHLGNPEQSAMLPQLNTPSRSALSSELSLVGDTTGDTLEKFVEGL

CREB-binding protein [11] = biological target: T1, CREB-binding protein; settings: dose 200.0 µM, time 30.0 min
Target sequence in this assay (Q92793 2-2442 limits assumed): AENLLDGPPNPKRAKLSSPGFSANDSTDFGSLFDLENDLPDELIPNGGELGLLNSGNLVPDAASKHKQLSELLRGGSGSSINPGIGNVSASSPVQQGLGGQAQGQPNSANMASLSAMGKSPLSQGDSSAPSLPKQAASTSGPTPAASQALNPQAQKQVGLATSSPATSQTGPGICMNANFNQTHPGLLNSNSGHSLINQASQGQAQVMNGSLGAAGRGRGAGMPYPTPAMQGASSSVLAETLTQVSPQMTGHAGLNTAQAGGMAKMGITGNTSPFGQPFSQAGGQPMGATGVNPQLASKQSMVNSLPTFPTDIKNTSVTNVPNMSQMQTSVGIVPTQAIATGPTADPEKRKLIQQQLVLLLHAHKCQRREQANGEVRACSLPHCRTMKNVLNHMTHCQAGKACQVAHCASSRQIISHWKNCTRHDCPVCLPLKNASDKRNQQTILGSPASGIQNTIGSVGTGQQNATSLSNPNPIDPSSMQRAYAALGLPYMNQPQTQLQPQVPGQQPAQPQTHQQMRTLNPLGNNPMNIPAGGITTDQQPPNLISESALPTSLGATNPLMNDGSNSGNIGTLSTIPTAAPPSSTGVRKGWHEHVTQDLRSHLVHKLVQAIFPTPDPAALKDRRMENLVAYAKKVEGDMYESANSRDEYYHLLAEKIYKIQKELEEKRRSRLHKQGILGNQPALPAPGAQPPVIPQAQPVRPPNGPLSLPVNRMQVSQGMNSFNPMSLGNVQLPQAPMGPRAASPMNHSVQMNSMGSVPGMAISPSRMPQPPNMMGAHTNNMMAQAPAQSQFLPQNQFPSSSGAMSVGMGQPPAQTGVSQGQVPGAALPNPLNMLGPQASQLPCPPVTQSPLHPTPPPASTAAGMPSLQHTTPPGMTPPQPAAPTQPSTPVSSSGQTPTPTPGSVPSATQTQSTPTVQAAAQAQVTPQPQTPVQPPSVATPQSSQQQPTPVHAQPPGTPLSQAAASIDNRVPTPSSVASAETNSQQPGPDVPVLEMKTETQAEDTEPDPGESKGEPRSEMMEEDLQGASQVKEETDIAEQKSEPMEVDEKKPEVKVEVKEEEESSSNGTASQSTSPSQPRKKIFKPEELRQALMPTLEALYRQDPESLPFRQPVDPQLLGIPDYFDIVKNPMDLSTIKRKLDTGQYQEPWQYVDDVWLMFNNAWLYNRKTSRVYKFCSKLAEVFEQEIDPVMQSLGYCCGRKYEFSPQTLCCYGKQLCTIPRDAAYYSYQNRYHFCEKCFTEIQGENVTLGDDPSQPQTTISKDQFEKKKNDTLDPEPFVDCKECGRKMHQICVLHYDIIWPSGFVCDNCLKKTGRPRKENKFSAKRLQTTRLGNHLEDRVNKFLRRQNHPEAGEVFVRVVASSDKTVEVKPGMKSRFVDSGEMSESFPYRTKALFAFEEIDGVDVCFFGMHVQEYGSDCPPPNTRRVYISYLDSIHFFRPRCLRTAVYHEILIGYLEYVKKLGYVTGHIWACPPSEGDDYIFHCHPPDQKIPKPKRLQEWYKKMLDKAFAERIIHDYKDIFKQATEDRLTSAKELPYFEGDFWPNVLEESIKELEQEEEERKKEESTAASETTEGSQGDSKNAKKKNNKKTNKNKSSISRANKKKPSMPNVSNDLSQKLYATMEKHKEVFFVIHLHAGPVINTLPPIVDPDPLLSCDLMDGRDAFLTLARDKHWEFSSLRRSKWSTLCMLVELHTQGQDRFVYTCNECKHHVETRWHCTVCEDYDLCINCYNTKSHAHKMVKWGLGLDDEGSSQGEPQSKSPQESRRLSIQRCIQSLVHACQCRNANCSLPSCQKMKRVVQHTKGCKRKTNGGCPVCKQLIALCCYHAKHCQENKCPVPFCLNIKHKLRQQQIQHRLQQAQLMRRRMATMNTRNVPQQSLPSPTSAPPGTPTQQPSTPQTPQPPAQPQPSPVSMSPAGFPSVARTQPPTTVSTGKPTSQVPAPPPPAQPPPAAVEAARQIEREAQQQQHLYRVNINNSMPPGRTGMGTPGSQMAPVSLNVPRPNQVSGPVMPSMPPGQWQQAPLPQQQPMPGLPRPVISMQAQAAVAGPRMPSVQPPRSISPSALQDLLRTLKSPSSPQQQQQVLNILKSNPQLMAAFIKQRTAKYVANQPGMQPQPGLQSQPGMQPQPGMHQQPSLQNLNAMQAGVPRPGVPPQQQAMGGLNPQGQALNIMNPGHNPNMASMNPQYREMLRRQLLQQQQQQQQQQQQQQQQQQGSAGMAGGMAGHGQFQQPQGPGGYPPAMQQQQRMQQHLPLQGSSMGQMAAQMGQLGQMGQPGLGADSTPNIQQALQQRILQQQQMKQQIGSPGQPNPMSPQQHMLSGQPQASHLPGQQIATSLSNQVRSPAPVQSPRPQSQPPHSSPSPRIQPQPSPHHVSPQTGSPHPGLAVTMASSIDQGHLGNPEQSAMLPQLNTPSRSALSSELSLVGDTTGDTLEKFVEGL

LNCaP C4-2B = assay: Antiproliferative activity against human LNCaP C4-2B cells assessed as inhibition of cell growth by Celltiter-Glo assay; assay type: functional, cell-based
[12] = Apparent permeability across basolateral to apical side in human Caco-2 cells assessed as drug recovery at 10 uM measured after 2 hrs by LC-MS/MS analysis; assay type: ADME, cell-based; settings: read-out: Drug recovery
[13] = Apparent permeability across apical to basolateral side in human Caco-2 cells assessed as drug recovery at 10 uM measured after 2 hrs by LC-MS/MS analysis; assay type: ADME, cell-based; settings: read-out: Drug recovery
[14] = Apparent permeability across apical to basolateral side in human Caco-2 cells at 10 uM measured after 2 hrs by LC-MS/MS analysis; assay type: ADME, cell-based
[15] = Apparent permeability across basolateral to apical side in human Caco-2 cells at 10 uM measured after 2 hrs by LC-MS/MS analysis; assay type: ADME, cell-based
CREB-binding protein [16] = biological target: T1, CREB-binding protein; assay: Binding affinity to His6-tagged human CBP bromodomain (1081 to 1197 residues) expressed in Escherichia coli BL21 (DE3) assessed as dissociation constant by ITC analysis
Target sequence in this assay (Q92793 whole entry, the tested form may be a part): as the sequence (Q92793 whole entry, the tested form may be a part) above

[17] = biological target: SWI/SNF-related matrix-associated actin-dependent regulator of chromatin subfamily A member 2 (Homo sapiens) (UniProt P51531); settings: dose 200.0 µM, time 30.0 min
[18] = biological target: T2, Bromodomain-containing protein 2 (Homo sapiens, UniProt P25440); settings: dose 200.0 µM, time 30.0 min
[19] = biological target: T3, Bromodomain-containing protein 9 (Homo sapiens) (UniProt Q9H8M2); settings: dose 200.0 µM, time 30.0 min
T3 sequence (whole entry): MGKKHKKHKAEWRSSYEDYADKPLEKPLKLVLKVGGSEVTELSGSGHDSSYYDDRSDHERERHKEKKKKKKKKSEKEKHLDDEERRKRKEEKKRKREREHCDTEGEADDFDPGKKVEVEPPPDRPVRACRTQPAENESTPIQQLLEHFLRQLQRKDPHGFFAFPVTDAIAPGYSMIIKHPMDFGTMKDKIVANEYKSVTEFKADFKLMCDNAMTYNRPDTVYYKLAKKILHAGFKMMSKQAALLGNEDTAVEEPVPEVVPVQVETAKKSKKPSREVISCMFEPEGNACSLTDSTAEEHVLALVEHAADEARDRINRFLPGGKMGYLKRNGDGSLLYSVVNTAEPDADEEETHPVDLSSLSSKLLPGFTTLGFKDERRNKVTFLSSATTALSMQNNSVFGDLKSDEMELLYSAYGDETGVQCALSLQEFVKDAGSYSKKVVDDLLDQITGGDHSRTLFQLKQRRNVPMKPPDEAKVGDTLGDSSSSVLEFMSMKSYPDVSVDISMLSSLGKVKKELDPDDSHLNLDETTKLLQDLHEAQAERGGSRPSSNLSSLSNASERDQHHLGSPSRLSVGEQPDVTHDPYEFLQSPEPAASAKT

[20] = biological target: T4, Bromodomain-containing protein 3 (Homo sapiens, UniProt Q15059); settings: dose 200.0 µM, time 30.0 min
LNCaP = assay: Antiproliferative activity against human LNCaP cells assessed as cell growth inhibition by Celltiter-Glo assay; assay type: functional, cell-based
[21] = biological target: T5, Bromodomain-containing protein 4 (Homo sapiens, UniProt O60885); settings: dose 200.0 µM, time 30.0 min
[22] = biological target: T4, Bromodomain-containing protein 3; settings: dose 200.0 µM, time 30.0 min; remark: listed apart in the source
[23] = biological target: T2, Bromodomain-containing protein 2; settings: dose 200.0 µM, time 30.0 min; remark: listed apart in the source
[24] = biological target: Histone acetyltransferase p300 (Homo sapiens) (UniProt Q09472); settings: dose 200.0 µM, time 30.0 min
[25] = biological target: PH-interacting protein (Homo sapiens) (UniProt Q8WWQ0); settings: dose 200.0 µM, time 30.0 min
[26] = biological target: Bromodomain adjacent to zinc finger domain protein 2B (Homo sapiens) (UniProt Q9UIF8); settings: dose 200.0 µM, time 30.0 min
[27] = biological target: Chromatin remodeling regulator CECR2 (Homo sapiens) (UniProt Q9BXF3); settings: dose 200.0 µM, time 30.0 min
[28] = biological target: Histone acetyltransferase KAT2B (Homo sapiens) (UniProt Q92831); settings: dose 200.0 µM, time 30.0 min
[29] = biological target: T5, Bromodomain-containing protein 4; settings: dose 200.0 µM, time 30.0 min; remark: listed apart in the source
[30] = biological target: T6, Bromodomain testis-specific protein (Homo sapiens, UniProt Q58F21); settings: dose 200.0 µM, time 30.0 min
[31] = biological target: T6, Bromodomain testis-specific protein; settings: dose 200.0 µM, time 30.0 min; remark: listed apart in the source
CWR22R = assay: Antiproliferative activity against human 22Rv1 cells assessed as cell growth inhibition by Celltiter-Glo assay; assay type: functional, cell-based

`Cc1ncc2n1-c1ccc(Cl)cc1C(c1ccccc1F)=NC2` [MIDAZOLAM] showed a hepatic extraction ratio at 0.75 h, 1 µM [1] of 0.962, a CLint scaled at 1 µM [2] of 1.19 L/h/kg and a half-life at 1 µM [3] of 1.85 min. For the same compound, the CLint scaled at 1 µM [4] was 27.1 L/h/kg, the CLint scaled at 1 µM [5] was 45 L/h/kg and the hepatic extraction ratio at 0.75 h, 1 µM (in vitro) was 0.961. For the same compound, the half-life at 1 µM [6] was 3.07 min, the remaining at 0.75 h, 1 µM [7] was 0.55% and the CLhep predicted at 1 µM [8] was 3.18 L/h/kg. It also gave a remaining at 0.75 h, 1 µM [9] of 4.5%.

With `COc1ccn2c(C(C)=O)cc(C(=O)Nc3cc(CO)cc(-c4cnn(C)c4)c3F)c2c1` the IC50 (CREB-binding protein [10]) was 0.012 µM, the ΔTm (CREB-binding protein [11]) was 8.4 °C and the IC50 (LNCaP C4-2B) was 9.57 µM.

`CC(=O)c1cc(C(=O)Nc2cc(CO)cc(-c3cnn(C)c3)c2F)c2cc(OC(=O)C(C)(C)C)ccn12` showed an IC50 (CREB-binding protein [10]) of 0.042 µM, a ΔTm (CREB-binding protein [11]) of 6 °C and an IC50 (LNCaP C4-2B) of 29.6 µM.

`CC(=O)c1cc(C(=O)Nc2cc(CO)cc(-c3cnn(C)c3)c2F)c2cc(C)ccn12` showed an IC50 (CREB-binding protein [10]) of 0.014 µM, a ΔTm (CREB-binding protein [11]) of 6.3 °C and an IC50 (LNCaP C4-2B) of over 50 µM.

`CC(C)NCC(O)COc1cccc2ccccc12` (stereo unspecified) [PROPRANOLOL] gave a recovery at 2 h, 10 µM [12] of 90.7%, a recovery at 2 h, 10 µM [13] of 85% and a Papp A→B at 2 h, 10 µM [14] of 283 nm/s. For the same compound, the Papp B→A at 2 h, 10 µM [15] was 189 nm/s.

With `CC(=O)c1cc(C(=O)Nc2cc(CO)cc(-c3cnn(C)c3)c2F)c2cc(CN)ccn12` the IC50 (CREB-binding protein [10]) was 0.0556 µM, the ΔTm (CREB-binding protein [11]) was 8.7 °C and the IC50 (LNCaP C4-2B) was 13.4 µM.

`COc1ccn2c(C(C)=O)cc(C(=O)Nc3cc(C(N)=O)cc(-c4cnn(C)c4)c3F)c2c1` showed a ΔTm (CREB-binding protein [11]) of 2.4 °C.

For `COc1ccn2c(C(C)=O)cc(C(=O)Nc3cc(C(F)(F)F)cc(-c4cnn(C)c4)c3F)c2c1`, the ΔTm (CREB-binding protein [11]) was 2.7 °C and the IC50 (LNCaP C4-2B) was over 50 µM.

With `COc1ccc2c(c1)c(C(=O)Nc1cc(C(=O)O)cc(-c3cnn(C)c3)c1F)cn2C(C)=O` the IC50 (CREB-binding protein [10]) was 0.178 µM, the half-life at 1 µM [3] was 13.1 min and the Kd (CREB-binding protein [16]) was 0.165 µM. It also gave a CLint scaled at 1 µM [5] of 11.3 L/h/kg, a hepatic extraction ratio at 0.75 h, 1 µM (in vitro) of 0.774 and a CLhep predicted at 1 µM [8] of 2.56 L/h/kg. It also gave a remaining at 0.75 h, 1 µM [9] of 7.7%.

For `CC(=O)c1cc(C(=O)Nc2cc(CO)cc(-c3cnn(C)c3)c2F)c2cc(O)ccn12`, the Kd (CREB-binding protein [16]) was 0.044 µM, the ΔTm (CREB-binding protein [11]) was 12.6 °C and the IC50 (LNCaP C4-2B) was 34.2 µM.

`C[C@@H]1CC(=O)Nc2cccc(-c3ccc4c(c3)c(-c3cnn(C)c3)nn4C)c2N1` gave a ΔTm [17] of -0.3 °C, an IC50 (CREB-binding protein [10]) of 0.014 µM and a ΔTm [18] of 1.3 °C. It also gave a ΔTm [19] of 7 °C, a ΔTm [20] of 1 °C and an IC50 (LNCaP) of 0.65 µM. The ΔTm [21] was 0 °C, the ΔTm [22] was 1.5 °C and the ΔTm [23] was 1 °C. It also gave a ΔTm [24] of 15.5 °C, a ΔTm [25] of 0 °C and a ΔTm [26] of -0.2 °C. The Kd (CREB-binding protein [16]) was 0.068 µM, the ΔTm (CREB-binding protein [11]) was 14.3 °C and the ΔTm [27] was -0.2 °C. It also gave a ΔTm [28] of -0.2 °C, a ΔTm [29] of 5 °C and a ΔTm [30] of 1.8 °C. The IC50 (LNCaP C4-2B) was 3.35 µM, the ΔTm [31] was -0.5 °C and the IC50 (CWR22R) was 3.13 µM.

Work on `CCc1ccn2c(C(C)=O)cc(C(=O)Nc3cc(CO)cc(-c4cnn(C)c4)c3F)c2c1` yielded an IC50 (CREB-binding protein [10]) of 0.0218 µM, a ΔTm (CREB-binding protein [11]) of 6.3 °C and an IC50 (LNCaP C4-2B) of 50 µM.

Work on `CC(=O)c1cc(C(=O)Nc2cc(CO)cc(-c3cnn(C4CC4)c3)c2F)c2cc(O)ccn12` yielded an IC50 (CREB-binding protein [10]) of 0.0248 µM, a ΔTm (CREB-binding protein [11]) of 14.1 °C and an IC50 (LNCaP C4-2B) of 29 µM.

Work on `C[C@H]1O[C@@H](O[C@H]2[C@@H](O)C[C@H](O[C@H]3[C@@H](O)C[C@H](O[C@H]4CC[C@@]5(C)[C@H](CC[C@@H]6[C@@H]5C[C@@H](O)[C@]5(C)[C@@H](C7=CC(=O)OC7)CC[C@]65O)C4)O[C@@H]3C)O[C@@H]2C)C[C@H](O)[C@@H]1O` [DIGOXIN] yielded a recovery at 2 h, 10 µM [12] of 92.7% and a Papp A→B at 2 h, 10 µM [14] of 12.6 nm/s.

Compound `Cn1cc(-c2cc(CO)cc(NC(=O)c3cc(C(=O)C4CC4)n4ccc(O)cc34)c2F)cn1` has a ΔTm (CREB-binding protein [11]) of 2.1 °C.

With `COC(=O)c1cc(NC(=O)c2cc(C(C)=O)n3ccc(OC)cc23)c(F)c(-c2cnn(C)c2)c1` the ΔTm (CREB-binding protein [11]) was 3.3 °C and the IC50 (LNCaP C4-2B) was over 50 µM.
